Numbered stars: 1 amine (or outer) side, 2 acyl side, 3 side chain; on linkers, the order of the positions; unused ones are H or OH. Bridge positions count the residues as written; N and C are the ends. Square brackets hold non-standard residues; d marks the D form. Peptide text beside a SMILES is read from it. * marks the point of attachment. ξ: configuration not given here. Orn(4R-OH,5R-OCH2CH2NMe3+) = C[N+](C)(C)CCO[C@@H](N[*:3])[C@H](O)C[C@H](N[*:1])C(=O)[*:2]; pTerphenylCO(4''-OnC5H11) = CCCCCOc1ccc(-c2ccc(-c3ccc(C(=O)*)cc3)cc2)cc1; hTyr(3S-OH,4S-OH) = N[C@H](C(=O)O)[C@H](O)[C@@H](O)c1ccc(O)cc1; X1 = C[C@H]1CN([*:1])C(C(=O)[*:2])C1O; Hyp = O=C(O)[C@@H]1C[C@@H](O)CN1; ξT = CC(O)C(N)C(=O)O
Tests used:
[1] = test system: A. fumigatus (ATCC 13073); assay: Disseminated infection of neutropenic ICR mice, prophylaxis, survival; format: in vivo, Aspergillus fumigatus
Protocol: Inoculum Preparation. A. fumigatus (ATCC 13073) growth was taken from 96 hr potato dextrose agar (PDA) and re-suspended in 0.1% Tween 20. The culture was resuspended in 1 mL cold PBS (>1.0×10^8 CFU/mL, OD620 2.3-2.8). The culture was then diluted in PBS to final cellular densities of 2.0×10^5 CFU/mL. The actual colony counts were determined by plating dilutions on PDA plates to confirm inoculation concentration. The actual inoculum count was 1.85×10^5 CFU/mL.
A. fumigatus (ATCC 13073) disseminated infection (IV). Groups of 6 female ICR mice weighing 22±2 g were used. Animals were immunosuppressed by three intraperitoneal (IP) injections of cyclophosphamide (the first at 6 mg/mouse 3 days before inoculation, the second and third at 2 mg/mouse on Day 1 then Day 4 after inoculation). On Day 0, animals were inoculated (0.1 mL/mouse) by intravenous (IV) injection into the tail vein with A. fumigatus (ATCC 13073), 1.85×10^4 CFU per mouse. CD101 at 5, 10 and 20 mg/kg as prophylaxis was administered subcutaneously (SC) once starting 5, 3 or 1 day before inoculation. […]
A 50 percent or more (≥50%) increase in the survival rate compared to the vehicle control group indicates significant anti-infective activity. The health observations including body weight, hunched posture, ruffled fur, immobility and hypothermia were recorded daily for 14 days. Animals found moribund were to be humanely sacrificed with CO2 asphyxiation in the study.

[2] = test system: C. glabrata; assay: Neutropenic murine disseminated candidiasis model, PK/PD target determination; format: in vivo, Candida glabrata
Protocol: Infection model. A neutropenic, murine, disseminated candidiasis model was used for the treatment studies. The mice were rendered neutropenic (polymorphonuclear cell count, <100/mm3) by injecting 150 mg/kg of cyclophosphamide (Mead Johnson Pharmaceuticals, Evansville, IN) subcutaneously 4 days before infection, 100 mg/kg of cyclophosphamide 1 day before infection, and additional cyclophosphamide doses (100 mg/kg) on Day 2 and Day 4 after infection to ensure neutropenia throughout the 168 h (7 d) study period. Three mice were included in each treatment and control group.
The organisms were subcultured on SDA plates 24 h prior to infection. The inoculum was prepared by placing 3 to 5 colonies into 5 ml of sterile pyrogen-free 0.15 M NaCl warmed to 35° C. The final inoculum was adjusted to a 0.6 transmittance at 530 nm. The fungal count of the inoculum determined by viable counts on SDA was 6.1±0.2 log10 CFU/ml.
Disseminated infection with the Candida strains was achieved by injection of 0.1 ml of the inoculum via the lateral tail vein 2 h prior to the start of antifungal therapy. At the end of the study period, the animals were sacrificed by CO2 asphyxiation. The kidneys of each mouse were aseptically removed and placed in 0.15 M NaCl at 4° C. The kidneys were homogenized and serially diluted 1:10, and the aliquots were plated onto SDA for viable fungal colony counts after incubation for 24 h at 35° C. The lower limit of detection was 100 CFU/ml. The results are expressed as the mean CFU/kidney for three mice.
Treatment efficacy and pharmacodynamic target determination of CD101. Neutropenic mice were infected with one of 10 Candida strains as described above. […] Five dose levels that varied from 0.25 to 64 mg/kg were administered once in a 0.2-ml volume by IP route for the 168 h study period. Due to enhanced effect against single isolate, additional studies at 0.0156 and 0.0625 mg/kg was examined for C. glabrata 5592. Groups of three mice were used for each dosing regimen and control group. At the end of the treatment period (168 h), the mice were euthanized, and their kidneys were immediately processed for CFU determination as described above.
Data analysis. A sigmoid dose-effect (Hill) model was used to measure the in vivo potency of CD101. The efficacy endpoints included the dose level required to produce a 24 h net static effect (no change in organism burden compared to that at the start of therapy) and the dose required to achieve a 1-log10 reduction in colony counts (relative to the burden at the start of therapy), when achieved. The maximum response (Emax) was measured as the difference in the number of CFU/kidney relative to that of the untreated control animals. The doses associated with the stasis and 1-log10 endpoint for each strain was calculated using the equation: log10 D=[log10 (E/(Emax−E))/N]+log10 ED50, where D is the drug dose, E is the control growth in untreated animals, Emax is the maximal effect, Nis the slope of the dose-response relationship, and ED50 is the dose needed to achieve 50% of the maximal effect. The associated AUC/MIC targets were then calculated for each strain. […] The calculations were performed using both total and free drug concentrations. The coefficient of determination (R^2) was used to estimate the variance that might be due to regression with the PK/PD index. Kruskal-Wallis one-way analysis of variance (ANOVA) was used to determine if the differences in PK/PD targets were significant between the species.

[3] = 5, 10 and 20 mg/kg SC on Day −5, −3 and −1
[4] = Median of 3 C. glabrata strains

## CCCCCOc1ccc(-c2ccc(-c3ccc(C(=O)N[C@H]4C[C@@H](O)[C@@H](OCC[N+](C)(C)C)NC(=O)C5C(O)[C@@H](C)CN5C(=O)[C@H]([C@@H](C)O)NC(=O)[C@H]([C@H](O)[C@@H](O)c5ccc(O)cc5)NC(=O)[C@@H]5C[C@@H](O)CN5C(=O)C(C(C)O)NC4=O)cc3)cc2)cc1 (stereo partly drawn) [CD101] ({pTerphenylCO(4''-OnC5H11)}-[Orn(4R-OH,5R-OCH2CH2NMe3+)][ξT][Hyp][hTyr(3S-OH,4S-OH)]T[X1]; lactam 1-C)
[1]; 5 mg/kg SC 1 hr after infection
  14-day survival: significant increase in the 14-day survival
[1]; [3]
  increase in the 14-day survival compared to the vehicle group: ≥ 50%
  symptoms of infection (body weight, hunched posture, ruffled fur, immobility, hypothermia): improved
[2]; 5592
  1 log kill 24 h Ave Free drug AUC/MIC: 0.36
  1 log kill free drug AUC0-168 h/MIC: 2.54
  1 log kill total drug AUC0-168 h/MIC: 317.50
  Stasis 24 h Ave free drug AUC/MIC: 0.05
  Stasis free drug AUC0-168 h/MIC: 0.35
  Stasis total drug AUC0-168 h/MIC: 43.16
[2]; 5592, single IP dose, 168 h
  1 log kill dose: 0.43 mg/kg
  Static dose: 0.06 mg/kg
[2]; 10956
  1 log kill 24 h Ave Free drug AUC/MIC: 1.20
  1 log kill free drug AUC0-168 h/MIC: 8.42
  1 log kill total drug AUC0-168 h/MIC: 1052.22
  Stasis 24 h Ave free drug AUC/MIC: 0.48
  Stasis free drug AUC0-168 h/MIC: 3.35
  Stasis total drug AUC0-168 h/MIC: 418.68
[2]; 10956, single IP dose, 168 h
  1 log kill dose: 17.25 mg/kg
  Static dose: 6.29 mg/kg
[2]; 35315
  1 log kill 24 h Ave Free drug AUC/MIC: 0.42
  1 log kill free drug AUC0-168 h/MIC: 2.94
  1 log kill total drug AUC0-168 h/MIC: 367.06
  Stasis 24 h Ave free drug AUC/MIC: 0.07
  Stasis free drug AUC0-168 h/MIC: 0.50
  Stasis total drug AUC0-168 h/MIC: 62.50
[2]; 35315, single IP dose, 168 h
  1 log kill dose: 2.39 mg/kg
  Static dose: 0.34 mg/kg
[2]; Mean of 3 C. glabrata strains
  1 log kill 24 h Ave Free drug AUC/MIC: 0.66
  1 log kill dose: 6.69 mg/kg
  1 log kill free drug AUC0-168 h/MIC: 4.63
  1 log kill total drug AUC0-168 h/MIC: 578.93
  Stasis 24 h Ave free drug AUC/MIC: 0.20
  Stasis free drug AUC0-168 h/MIC: 1.40
  Stasis total drug AUC0-168 h/MIC: 174.78
  Static dose: 2.23 mg/kg
[2]; [4]
  1 log kill 24 h Ave Free drug AUC/MIC: 0.42
  1 log kill dose: 2.39 mg/kg
  1 log kill free drug AUC0-168 h/MIC: 2.94
  1 log kill total drug AUC0-168 h/MIC: 367.06
  Stasis 24 h Ave free drug AUC/MIC: 0.07
  Stasis free drug AUC0-168 h/MIC: 0.5
  Stasis total drug AUC0-168 h/MIC: 62.50
  Static dose: 0.34 mg/kg
[2]; a number of strains, kidney burden, 168 h
  kill at high doses: > 2 log10
[2]; in vivo
  free AUC/MIC targets lower than the three comparator echinocandins: > 10 fold

Reference: patent publication US20240076347A1, “METHODS FOR PREVENTING FUNGAL INFECTIONS” (Cidara Therapeutics, Inc., priority 2016, published 2024)
